{"source": "patent US10676479B2", "about": "“Imidazolepyridine compounds and uses thereof” (Novartis AG, priority 2016, dated 2020)", "key": {"[1]": {"test_system": "H3K27 methylation in G401 cell", "assay": "ELISA (H3K27 methylation) assay", "format": "cell-based", "conditions": "Homo sapiens, G-401, ELISA Qualified assay, 48 h, read-out: (c) IC50", "procedure": "ELISA (H3K27 Methylation) Assay\nRepresentative compounds of the present invention were serially and separately diluted 3-fold in DMSO to obtain a total of eight or twelve concentrations. Then the compounds were added to G401 cell cultured in 384-well plate at 1:500 dilution to obtain the highest concentration of 20 μM. The cells were further cultured for 48 h before ELISA procedure.\nELISA protocol: Cell lysates were transferred to the wells of a 384-well plate and the final volume was adjusted to 50 μL per well with PBS. The plate was sealed, centrifuged at 2,000 rpm for 2 min and incubated at 4° C. for about 16 h. The plate was washed with TBST buffer (1×TBS (10×TBS: 24.2 g Tris (Sigma, T6066), 80 g NaCl (Sigma, S3014) to 1 L of water and adjust pH to 7.6 with HCl) with 0.1% Tween-20). Blocking buffer (TBST, 5% BSA; 50 μL per well) was added and the plate was incubated for 1 h at rt. The blocking buffer was removed and primary antibody was added (30 μL per well). […] The primary antibody was incubated in the plate at rt for 1 h. The wells were washed with TBST and incubated with secondary antibody for 1 h at rt. […] After 1 h of incubation at rt, the wells were washed with TBST. […] The signal was read using a PerkinElmer Envision Reader. The H3K27 methylation readouts were normalized using H3 signal and then percentage inhibition was calculated against the samples treated with DMSO. The data were then fit to a dose response curve using the program Helios to get the IC50 values of the test compound."}, "EED (1-441)-His protein": {"biological_target": "EED (1-441)-His protein (Homo sapiens (Human), UniProt O75530)", "sequence (O75530 whole entry)": "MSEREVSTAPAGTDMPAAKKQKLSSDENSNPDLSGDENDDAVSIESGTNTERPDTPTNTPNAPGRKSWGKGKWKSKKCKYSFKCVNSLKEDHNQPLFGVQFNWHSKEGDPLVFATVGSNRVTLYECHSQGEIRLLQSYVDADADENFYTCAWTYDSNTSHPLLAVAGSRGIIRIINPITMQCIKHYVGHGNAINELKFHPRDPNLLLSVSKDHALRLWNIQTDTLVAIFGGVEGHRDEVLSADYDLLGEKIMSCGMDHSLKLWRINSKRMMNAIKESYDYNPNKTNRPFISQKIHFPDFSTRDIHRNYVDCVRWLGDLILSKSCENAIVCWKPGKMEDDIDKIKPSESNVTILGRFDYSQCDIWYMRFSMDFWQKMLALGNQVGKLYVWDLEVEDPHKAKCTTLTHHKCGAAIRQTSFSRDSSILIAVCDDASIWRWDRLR", "assay": "EED-H3K27Me3 peptide competition binding assay by AlphaScreen", "conditions": "EED Alphascreen binding Qualified assay", "procedure": "Then 4 μL of detection beads mix was added to the plate and incubate in the dark at the rt for 1 h. The final concentration of donor and acceptor beads was 10 μg/mL for each. […] The data were then fit to a dose response equation using the program Helios (Novartis) to get the IC50 values. […] Sebaugh, J. […] Each compound was counter screened to determine if it interfered with the AlphaScreen beads. […] The plates were then incubated for 1 h at rt in dark before being read on EnVison."}, "[2]": {"biological_target": "wild type PRC2 (wtPRC2) complex (Homo sapiens (Human), UniProt O75530)", "sequence (O75530 whole entry)": "as above", "sequence (Q15910 whole entry partner)": "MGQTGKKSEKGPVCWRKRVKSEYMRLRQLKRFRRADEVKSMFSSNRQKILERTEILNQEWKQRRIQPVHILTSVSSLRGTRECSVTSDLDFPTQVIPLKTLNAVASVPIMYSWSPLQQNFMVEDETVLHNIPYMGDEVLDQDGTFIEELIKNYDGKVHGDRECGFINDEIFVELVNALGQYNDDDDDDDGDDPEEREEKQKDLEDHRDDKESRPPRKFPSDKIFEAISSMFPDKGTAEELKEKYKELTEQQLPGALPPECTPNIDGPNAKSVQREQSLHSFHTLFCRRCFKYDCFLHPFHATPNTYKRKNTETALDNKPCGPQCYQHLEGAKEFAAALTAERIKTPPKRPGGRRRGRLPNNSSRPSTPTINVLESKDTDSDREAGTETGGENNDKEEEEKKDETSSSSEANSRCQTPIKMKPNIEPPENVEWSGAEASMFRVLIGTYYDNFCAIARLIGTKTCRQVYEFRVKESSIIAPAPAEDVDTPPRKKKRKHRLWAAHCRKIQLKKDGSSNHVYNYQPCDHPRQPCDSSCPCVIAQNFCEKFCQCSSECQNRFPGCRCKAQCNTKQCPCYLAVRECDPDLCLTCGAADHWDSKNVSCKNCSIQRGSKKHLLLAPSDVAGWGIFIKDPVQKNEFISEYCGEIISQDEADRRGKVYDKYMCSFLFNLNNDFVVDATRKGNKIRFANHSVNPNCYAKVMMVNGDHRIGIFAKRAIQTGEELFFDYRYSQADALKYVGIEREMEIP", "sequence (Q15022 whole entry partner)": "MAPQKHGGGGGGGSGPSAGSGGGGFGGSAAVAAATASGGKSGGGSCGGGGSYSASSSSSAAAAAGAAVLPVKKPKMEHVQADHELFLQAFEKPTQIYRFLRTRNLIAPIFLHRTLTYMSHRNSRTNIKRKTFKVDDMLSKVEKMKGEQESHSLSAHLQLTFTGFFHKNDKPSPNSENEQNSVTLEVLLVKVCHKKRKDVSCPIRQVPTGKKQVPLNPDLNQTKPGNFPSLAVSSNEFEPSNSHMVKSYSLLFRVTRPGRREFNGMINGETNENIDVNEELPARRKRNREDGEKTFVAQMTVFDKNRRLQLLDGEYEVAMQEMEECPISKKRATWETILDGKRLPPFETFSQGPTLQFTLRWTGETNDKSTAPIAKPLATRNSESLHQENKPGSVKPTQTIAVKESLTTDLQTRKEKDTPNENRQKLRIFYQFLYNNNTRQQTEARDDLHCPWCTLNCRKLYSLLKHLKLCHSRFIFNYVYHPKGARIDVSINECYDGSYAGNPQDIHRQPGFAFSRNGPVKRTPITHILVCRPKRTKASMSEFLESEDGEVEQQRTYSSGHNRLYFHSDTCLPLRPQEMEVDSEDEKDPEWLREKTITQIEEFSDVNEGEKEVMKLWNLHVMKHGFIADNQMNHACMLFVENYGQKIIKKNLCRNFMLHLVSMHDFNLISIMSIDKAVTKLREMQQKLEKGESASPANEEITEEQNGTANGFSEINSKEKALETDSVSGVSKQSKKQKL", "assay": "EED LC-MS assay", "format": "biochemical", "conditions": "EED LC-MS Qualified assay; read-out: (b) IC50", "procedure": "EED LC-MS Assay Representative compounds of the present invention were serially and separately diluted 3-fold in DMSO to obtain a total of eight or twelve concentrations. […] A 6 μL solution of 3 μM of the peptide substrate H3K27Me0 (histone H3[21-44]-biotin) in reaction buffer was added to initiate each reaction. […] The data were then fit to a dose response equation using the program Helios to get the IC50 values of the test compound."}}, "data": [{"smiles": "Cc1nc(C(=O)N(C)C)ccc1-c1cnc(NCc2c(F)ccc3c2CCO3)n2cncc12", "note": "[Example 63, 5-(5-(((5-fluoro-2,3-dihydrobenzofuran-4-yl)methyl)amino)imidazo[1,5-c]pyrimidin-8-yl)-N,N,6-trimethylpicolinamide]", "values": [{"measurement": "IC50", "setting": "[1]", "result": 61.8, "unit": "nM"}, {"measurement": "IC50", "setting": "EED (1-441)-His protein", "result": 9.5, "unit": "nM"}, {"measurement": "IC50", "setting": "[2]", "result": 26.7, "unit": "nM"}]}, {"smiles": "CS(=O)(=O)c1ccc(-c2cnc(NCc3c(F)ccc4c3CCO4)n3cnc(Cl)c23)cc1", "note": "[Example 109, 1-chloro-N-((5-fluoro-2,3-dihydrobenzofuran-4-yl)methyl)-8-(4-(methylsulfonyl)phenyl)imidazo[1,5-c]pyrimidin-5-amine]", "values": [{"measurement": "IC50", "setting": "[1]", "result": 99.4, "unit": "nM"}, {"measurement": "IC50", "setting": "EED (1-441)-His protein", "result": 12.2, "unit": "nM"}, {"measurement": "IC50", "setting": "[2]", "result": 15, "unit": "nM"}]}, {"smiles": "CCOC(=O)c1ncn2c(NCc3cc(OC)c(F)cc3F)ncc(-c3ccc(S(=O)(=O)N(C)C)cc3)c12", "note": "[Example 97, ethyl 5-((2,4-difluoro-5-methoxybenzyl)amino)-8-(4-(N,N-dimethylsulfamoyl)phenyl)imidazo[1,5-c]pyrimidine-1-carboxylate]", "values": [{"measurement": "IC50", "setting": "[1]", "result": 200, "unit": "nM"}, {"measurement": "IC50", "setting": "EED (1-441)-His protein", "result": 19.6, "unit": "nM"}, {"measurement": "IC50", "setting": "[2]", "result": 16.7, "unit": "nM"}]}, {"smiles": "Cc1cnccc1-c1cnc(NCc2c(F)ccc3c2CCO3)n2cncc12", "note": "[Example 36, N-((5-fluoro-2,3-dihydrobenzofuran-4-yl)methyl)-8-(3-methylpyridin-4-yl)imidazo[1,5-c]pyrimidin-5-amine]", "values": [{"measurement": "IC50", "setting": "[1]", "result": 51.3, "unit": "nM"}, {"measurement": "IC50", "setting": "EED (1-441)-His protein", "result": 7.6, "unit": "nM"}, {"measurement": "IC50", "setting": "[2]", "result": 17.9, "unit": "nM"}]}, {"smiles": "Fc1cc(-c2cnc(NCc3c(F)ccc4c3CCO4)n3cncc23)ccn1", "note": "[Example 35, N-((5-fluoro-2,3-dihydrobenzofuran-4-yl)methyl)-8-(2-fluoropyridin-4-yl)imidazo[1,5-c]pyrimidin-5-amine]", "values": [{"measurement": "IC50", "setting": "[1]", "result": 74.4, "unit": "nM"}, {"measurement": "IC50", "setting": "EED (1-441)-His protein", "result": 15.5, "unit": "nM"}, {"measurement": "IC50", "setting": "[2]", "result": 26, "unit": "nM"}]}, {"smiles": "CN1CCc2ccc(-c3cnc(NCc4c(F)ccc5c4CCO5)n4cncc34)cc2C1", "note": "[Example 26, N-((5-fluoro-2,3-dihydrobenzofuran-4-yl)methyl)-8-(2-methyl-1,2,3,4-tetrahydroisoquinolin-7-yl)imidazo[1,5-c]pyrimidin-5-amine]", "values": [{"measurement": "IC50", "setting": "[1]", "result": 54.1, "unit": "nM"}, {"measurement": "IC50", "setting": "EED (1-441)-His protein", "result": 50.3, "unit": "nM"}, {"measurement": "IC50", "setting": "[2]", "result": 41.5, "unit": "nM"}]}, {"smiles": "CS(=O)(=O)c1ccc(-c2cnc(NCc3c(F)ccc4c3CCO4)n3cnc(C#N)c23)cn1", "note": "[Example 79, 5-(((5-fluoro-2,3-dihydrobenzofuran-4-yl)methyl)amino)-8-(6-(methylsulfonyl)pyridin-3-yl)imidazo[1,5-c]pyrimidine-1-carbonitrile]", "values": [{"measurement": "IC50", "setting": "[1]", "result": 6.6, "unit": "nM"}, {"measurement": "IC50", "setting": "EED (1-441)-His protein", "result": 5.3, "unit": "nM"}, {"measurement": "IC50", "setting": "[2]", "result": 16.7, "unit": "nM"}]}, {"smiles": "Cc1nc(C(F)(F)CN2CCCC2)ccc1-c1cnc(NCc2c(F)ccc3c2CCO3)n2cncc12", "note": "[Example 59, 8-(6-(1,1-difluoro-2-(pyrrolidin-1-yl)ethyl)-2-methylpyridin-3-yl)-N-((5-fluoro-2,3-dihydrobenzofuran-4-yl)methyl)imidazo[1,5-c]pyrimidin-5-amine]", "values": [{"measurement": "IC50", "setting": "[1]", "result": 98.7, "unit": "nM"}, {"measurement": "IC50", "setting": "EED (1-441)-His protein", "result": 13, "unit": "nM"}, {"measurement": "IC50", "setting": "[2]", "result": 25.5, "unit": "nM"}]}, {"smiles": "Cc1nn(C)c(C)c1-c1cnc(NCc2c(F)ccc3c2CCO3)n2cncc12", "note": "[Example 46, N-((5-fluoro-2,3-dihydrobenzofuran-4-yl)methyl)-8-(1,3,5-trimethyl-1H-pyrazol-4-yl)imidazo[1,5-c]pyrimidin-5-amine]", "values": [{"measurement": "IC50", "setting": "[1]", "result": 112, "unit": "nM"}, {"measurement": "IC50", "setting": "EED (1-441)-His protein", "result": 18.4, "unit": "nM"}, {"measurement": "IC50", "setting": "[2]", "result": 22.8, "unit": "nM"}]}, {"smiles": "CC(C)Oc1ccc(-c2ncn3c(NCc4c(F)ccc5c4CCO5)ncc(-c4ccc(S(C)(=O)=O)cc4)c23)cc1", "note": "[Example 117, N-((5-fluoro-2,3-dihydrobenzofuran-4-yl)methyl)-1-(4-isopropoxyphenyl)-8-(4-(methylsulfonyl)phenyl)imidazo[1,5-c]pyrimidin-5-amine]", "values": [{"measurement": "IC50", "setting": "[1]", "result": 58.5, "unit": "nM"}, {"measurement": "IC50", "setting": "EED (1-441)-His protein", "result": 11.4, "unit": "nM"}, {"measurement": "IC50", "setting": "[2]", "result": 19.5, "unit": "nM"}]}, {"smiles": "Cc1cc(C(=O)N(C)C)ncc1-c1cnc(NCc2c(F)ccc3c2CCO3)n2cncc12", "note": "[Example 54, 5-(5-(((5-fluoro-2,3-dihydrobenzofuran-4-yl)methyl)amino)imidazo[1,5-c]pyrimidin-8-yl)-N,N,4-trimethylpicolinamide]", "values": [{"measurement": "IC50", "setting": "[1]", "result": 8.1, "unit": "nM"}, {"measurement": "IC50", "setting": "EED (1-441)-His protein", "result": 4.4, "unit": "nM"}, {"measurement": "IC50", "setting": "[2]", "result": 12.6, "unit": "nM"}]}]}
